What was measured:
Format in all cases: physicochemical
[1] = Solubility in water, relative between solid forms; conditions: 60-100 ml of water per gram of the salt, room temperature; compared with anhydrous or amorphous tamsulosin adipate
Experimental: In another embodiment of the invention tamsulosin adipate dihydrate can be prepared also from water solutions from more soluble forms of tamsulosin adipate (anhydrous or amorphous). Depending on kinetic factors two polymorphs of tamsulosin adipate dihydrate can be obtained. In another embodiment tamsulosin adipate (anhydrous or amorphous) is dissolved in a small amount of water, preferably in 60-100 ml of water per gram of the salt, most preferably in 80-90 ml per gram, preferably at room temperature. Less soluble dihydrate spontaneously precipitates from the solution, yielding tamsulosin adipate dihydrate, characterized by the peaks at about 2θ= 10.2, 10.5, 13.5, 15.5, 16.3, 21.1, 21.9° 24.3, 25.2, 28.3 and 35.9° particularly characteristic peaks are 15.5, 21.9°, 28.3, and 35.9°.

[2] = Solid-state stability at ambient and at low relative humidity
Experimental: Tamsulosin adipate dihydrate from Example 9 (1.0 g), is stayed in an open dish in an airtight chamber at temperature of 25 °C and relative humidity of below 10 % (achieved by means of dry desiccant) for 3 days.

[3] = Solid-state stability at higher temperature
Experimental: Tamsulosin adipate dihydrate from Example 9 (1.0 g), is heated at 80 °C for 24 h to give a glassy solid which is crushed and homogenised.

[4] = Solubility in lower alcohols compared with tamsulosin hydrochloride; conditions: compared with commercially available tamsulosin hydrochloride
Excerpt: The adipate forms of tamsulosin prepared according to the present invention have favourable solubility properties. […] This property could be an indicator for better interactions with less polar surfaces (e.g. lipid barriers) and allows more homogeneous preparation of pharmaceutical preparations in which tamsulosin should be homogenously mixed with lipophilic excipients (such as in preparation of transdermal dosage forms). The adipate anion has been shown physiologically acceptable. The tamsulosin adipate has therefore appropriate properties for smooth interaction with hydrophilic and lipophilic surfaces.

Row | solubility in water relative to other forms [1] | stability in extremely dry conditions ([2]; below 20 % relative humidity, preferably below 10 %) | stability under normal ambient conditions ([2]; normal ambient conditions) | solid form after storage at low humidity (XRPD) ([2]; open dish, airtight chamber, 25 °C, relative humidity below 10 %, 3 days) | stability at higher temperatures ([3]; preferably above 70 °C, most preferably above 80 °C) | SMILES | solid form after heating (XRPD) ([3]; 80 °C for 24 h) | solubility in lower alcohols [4]
1 | Less soluble | loses water | stable | amorphous material | loses water | CCOc1ccccc1OCCN[C@H](C)Cc1ccc(OC)c(S(N)(=O)=O)c1 [Tamsulosin adipate dihydrate, tamsulosin adipate dihydrate form A] | amorphous material with traces of anhydrous crystalline form | –
2 | – | – | – | – | – | CCOc1ccccc1OCCN[C@H](C)Cc1ccc(OC)c(S(N)(=O)=O)c1 [Tamsulosin adipate, tamsulosin adipate] | – | more soluble in lower alcohols, than the commercially available tamsulosin hydrochloride
